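These data come from cells grown in 96-well plates and exposed to compound for 48 hours at five concentrations. Here, GI50 denotes the concentration required for 50% inhibition of growth. Definition used: TGI = concentration required for complete inhibition of growth.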
Legend:
Test in all cases: inhibition of tumour cell growth, NCI panel, 48 h
CCRF-CEM leukemia = tested on: CCRF-CEM leukemia
SK-OV-3 ovarian = tested on: SK-OV-3 ovarian
RPMI-8226 leukemia = tested on: RPMI-8226 leukemia
SK-MEL-28 melanoma = tested on: SK-MEL-28 melanoma
OVCAR-8 ovarian = tested on: OVCAR-8 ovarian
PC-3 prostate = tested on: PC-3 prostate
SNB-19 CNS = tested on: SNB-19 CNS
HOP-62 NSCLC = tested on: HOP-62 NSCLC
MCF7 breast = tested on: MCF7 breast
MDA-MB-231 breast = tested on: MDA-MB-231 breast
NCI/ADR-RES ovarian = tested on: NCI/ADR-RES ovarian
IGROV1 ovarian = tested on: IGROV1 ovarian
BT-549 breast = tested on: BT-549 breast
MOLT-4 leukemia = tested on: MOLT-4 leukemia
A549 NSCLC = tested on: A549 NSCLC
U251 CNS = tested on: U251 CNS
T-47D breast = tested on: T-47D breast
UACC-62 melanoma = tested on: UACC-62 melanoma
HCT-116 colon = tested on: HCT-116 colon
CAKI-1 renal = tested on: CAKI-1 renal
SW-620 colon = tested on: SW-620 colon
A498 renal = tested on: A498 renal
786-0 renal = tested on: 786-0 renal
TK-10 renal = tested on: TK-10 renal
NCI-H226 lung = tested on: NCI-H226 lung
SR leukemia = tested on: SR leukemia
M14 melanoma = tested on: M14 melanoma
SF-539 CNS = tested on: SF-539 CNS
KM12 colon = tested on: KM12 colon
K-562 leukemia = tested on: K-562 leukemia
HCT-15 colon = tested on: HCT-15 colon
UACC-257 melanoma = tested on: UACC-257 melanoma
HL-60(TB) leukemia = tested on: HL-60(TB) leukemia
NCI-H522 lung = tested on: NCI-H522 lung
OVCAR-5 ovarian = tested on: OVCAR-5 ovarian
ACHN renal = tested on: ACHN renal
HCC-2998 colon = tested on: HCC-2998 colon
NCI-H23 lung = tested on: NCI-H23 lung
HT29 colon = tested on: HT29 colon
DU-145 prostate = tested on: DU-145 prostate
SNB-75 CNS = tested on: SNB-75 CNS
SF-268 CNS = tested on: SF-268 CNS
COLO 205 colon = tested on: COLO 205 colon
OVCAR-3 ovarian = tested on: OVCAR-3 ovarian
SF-295 CNS = tested on: SF-295 CNS
SN12C renal = tested on: SN12C renal
RXF 393 renal = tested on: RXF 393 renal
OVCAR-4 ovarian = tested on: OVCAR-4 ovarian
MALME-3M melanoma = tested on: MALME-3M melanoma
SK-MEL-5 melanoma = tested on: SK-MEL-5 melanoma
HS 578T breast = tested on: HS 578T breast
UO-31 renal = tested on: UO-31 renal
MDA-MB-435 = tested on: MDA-MB-435
NCI-H460 lung = tested on: NCI-H460 lung
EKVX NSCLC = tested on: EKVX NSCLC
SK-MEL-2 melanoma = tested on: SK-MEL-2 melanoma
LOX IMVI melanoma = tested on: LOX IMVI melanoma

COc1ccc(-c2cc(/C=C3\C(=O)Nc4ccc(Cl)cc43)[nH]n2)cc1
GI50 (CCRF-CEM leukemia): 3.32 µM | TGI (CCRF-CEM leukemia): 16.6 µM | GI50 (SK-OV-3 ovarian): 4.07 µM | TGI (SK-OV-3 ovarian): 13.8 µM | GI50 (RPMI-8226 leukemia): 4.04 µM | TGI (RPMI-8226 leukemia): 18 µM | GI50 (SK-MEL-28 melanoma): 6.6 µM | TGI (SK-MEL-28 melanoma): 19.5 µM | GI50 (OVCAR-8 ovarian): 6.59 µM | TGI (OVCAR-8 ovarian): 20 µM | GI50 (PC-3 prostate): 4.03 µM | TGI (PC-3 prostate): 15.9 µM | GI50 (SNB-19 CNS): 10.4 µM | TGI (SNB-19 CNS): 28 µM | GI50 (HOP-62 NSCLC): 4.39 µM | TGI (HOP-62 NSCLC): 15.8 µM | GI50 (MCF7 breast): 2.43 µM | TGI (MCF7 breast): 11.8 µM | GI50 (MDA-MB-231 breast): 3.58 µM | TGI (MDA-MB-231 breast): 15.5 µM | GI50 (NCI/ADR-RES ovarian): 3.85 µM | TGI (NCI/ADR-RES ovarian): 17.7 µM | GI50 (IGROV1 ovarian): 5 µM | TGI (IGROV1 ovarian): 17.9 µM | GI50 (BT-549 breast): 6.85 µM | TGI (BT-549 breast): 19.3 µM | GI50 (MOLT-4 leukemia): 5.13 µM | TGI (MOLT-4 leukemia): 25.6 µM | GI50 (A549 NSCLC): 6.54 µM | TGI (A549 NSCLC): 18.5 µM | GI50 (U251 CNS): 3.16 µM | TGI (U251 CNS): 12.1 µM | GI50 (T-47D breast): 3.62 µM | TGI (T-47D breast): 14.6 µM | GI50 (UACC-62 melanoma): 5.56 µM | TGI (UACC-62 melanoma): 18.5 µM | GI50 (HCT-116 colon): 4.13 µM | TGI (HCT-116 colon): 14.1 µM | GI50 (CAKI-1 renal): 3.31 µM | TGI (CAKI-1 renal): 13.8 µM | GI50 (SW-620 colon): 4.01 µM | TGI (SW-620 colon): 15.5 µM | GI50 (A498 renal): 3.83 µM | TGI (A498 renal): 16.3 µM | GI50 (786-0 renal): 5.28 µM | TGI (786-0 renal): 17.4 µM | GI50 (TK-10 renal): 8.8 µM | TGI (TK-10 renal): 20.7 µM | GI50 (NCI-H226 lung): 12.1 µM | TGI (NCI-H226 lung): 28.1 µM | GI50 (SR leukemia): 4.24 µM | TGI (SR leukemia): 20.1 µM | GI50 (M14 melanoma): 4.02 µM | TGI (M14 melanoma): 15.2 µM | GI50 (SF-539 CNS): 2.63 µM | TGI (SF-539 CNS): 7.68 µM | GI50 (KM12 colon): 3.96 µM | TGI (KM12 colon): 19.6 µM | GI50 (K-562 leukemia): 2.56 µM | TGI (K-562 leukemia): 13.1 µM | GI50 (HCT-15 colon): 2.8 µM | TGI (HCT-15 colon): 14.2 µM | GI50 (UACC-257 melanoma): 8.78 µM | TGI (UACC-257 melanoma): 21.4 µM | GI50 (HL-60(TB) leukemia): 3.04 µM | TGI (HL-60(TB) leukemia): 10.4 µM | GI50 (NCI-H522 lung): 2.03 µM | TGI (NCI-H522 lung): 5.67 µM | GI50 (OVCAR-5 ovarian): 8.67 µM | TGI (OVCAR-5 ovarian): 21.1 µM | GI50 (ACHN renal): 5.71 µM | TGI (ACHN renal): 18.4 µM | GI50 (HCC-2998 colon): 9.4 µM | TGI (HCC-2998 colon): 24.2 µM | GI50 (NCI-H23 lung): 3.73 µM | TGI (NCI-H23 lung): 16.3 µM | GI50 (HT29 colon): 3.35 µM | TGI (HT29 colon): 10.9 µM | GI50 (DU-145 prostate): 3.89 µM | TGI (DU-145 prostate): 13.6 µM | GI50 (SNB-75 CNS): 2.26 µM | TGI (SNB-75 CNS): 8.49 µM | GI50 (SF-268 CNS): 6.48 µM | TGI (SF-268 CNS): 19.1 µM | GI50 (COLO 205 colon): 2.08 µM | TGI (COLO 205 colon): 4.7 µM | GI50 (OVCAR-3 ovarian): 3.05 µM | TGI (OVCAR-3 ovarian): 8.42 µM | GI50 (SF-295 CNS): 3.29 µM | TGI (SF-295 CNS): 12.8 µM | GI50 (SN12C renal): 5.51 µM | TGI (SN12C renal): 18.2 µM | GI50 (RXF 393 renal): 5.61 µM | TGI (RXF 393 renal): 19.1 µM | GI50 (OVCAR-4 ovarian): 4.31 µM | TGI (OVCAR-4 ovarian): 17.3 µM | GI50 (MALME-3M melanoma): 6.85 µM | TGI (MALME-3M melanoma): 20 µM | GI50 (SK-MEL-5 melanoma): 5.17 µM | TGI (SK-MEL-5 melanoma): 23.6 µM | GI50 (HS 578T breast): 3.52 µM | TGI (HS 578T breast): 22.4 µM | GI50 (UO-31 renal): 4.02 µM | TGI (UO-31 renal): 16.9 µM | GI50 (MDA-MB-435): 1.86 µM | TGI (MDA-MB-435): 4.47 µM | GI50 (NCI-H460 lung): 3.81 µM | TGI (NCI-H460 lung): 13 µM

Nc1ccc(S(=O)(=O)C23CC4CC(CC(C4)C2)C3)cc1
TGI (CCRF-CEM leukemia): > 100 µM | TGI (SK-OV-3 ovarian): > 100 µM | TGI (RPMI-8226 leukemia): > 100 µM | TGI (SK-MEL-28 melanoma): > 100 µM | TGI (OVCAR-8 ovarian): > 100 µM | TGI (PC-3 prostate): > 100 µM | TGI (SNB-19 CNS): > 100 µM | TGI (HOP-62 NSCLC): > 100 µM | TGI (MCF7 breast): > 100 µM | TGI (MDA-MB-231 breast): > 100 µM | TGI (NCI/ADR-RES ovarian): > 100 µM | TGI (EKVX NSCLC): > 100 µM | TGI (IGROV1 ovarian): > 100 µM | TGI (BT-549 breast): > 100 µM | TGI (A549 NSCLC): > 100 µM | TGI (U251 CNS): > 100 µM | TGI (T-47D breast): > 100 µM | TGI (UACC-62 melanoma): > 100 µM | TGI (HCT-116 colon): > 100 µM | TGI (CAKI-1 renal): > 100 µM | TGI (SW-620 colon): > 100 µM | TGI (A498 renal): > 100 µM | TGI (786-0 renal): > 100 µM | TGI (TK-10 renal): > 100 µM | TGI (NCI-H226 lung): > 100 µM | TGI (SR leukemia): > 100 µM | TGI (M14 melanoma): > 100 µM | TGI (SF-539 CNS): > 100 µM | TGI (KM12 colon): > 100 µM | TGI (K-562 leukemia): > 100 µM | TGI (HCT-15 colon): > 100 µM | TGI (UACC-257 melanoma): > 100 µM | TGI (SK-MEL-2 melanoma): > 100 µM | TGI (HL-60(TB) leukemia): > 100 µM | TGI (NCI-H522 lung): > 100 µM | TGI (OVCAR-5 ovarian): > 100 µM | TGI (ACHN renal): > 100 µM | TGI (HCC-2998 colon): > 100 µM | TGI (NCI-H23 lung): > 100 µM | TGI (HT29 colon): > 100 µM | TGI (LOX IMVI melanoma): > 100 µM | TGI (DU-145 prostate): > 100 µM | TGI (SF-268 CNS): > 100 µM | TGI (COLO 205 colon): > 100 µM | TGI (OVCAR-3 ovarian): > 100 µM | TGI (SF-295 CNS): > 100 µM | TGI (SN12C renal): > 100 µM | TGI (RXF 393 renal): 79.4 µM | TGI (MALME-3M melanoma): > 100 µM | TGI (SK-MEL-5 melanoma): > 100 µM | TGI (HS 578T breast): > 100 µM | TGI (UO-31 renal): > 100 µM | TGI (MDA-MB-435): > 100 µM | TGI (NCI-H460 lung): > 100 µM
